Reference: PMC12009420, “Dynamically chiral phosphonic acid-type metallo-β-lactamase inhibitors” (Communications Chemistry, 2025)
Like-named read-outs stand apart in the source and are kept apart here.

Tests used:
GIM-1 [1] = target: T1, GIM-1 (Pseudomonas aeruginosa, UniProt Q704V1); test: Enzymatic metallo-β-lactamase assay on purified GIM-1; format: biochemical; settings: approximated from Dixon plots (1/v vs [I]) at one constant substrate concentration; ± SE; read-out: Estimated inhibition constant Ki GIM-1
MTT cytotoxicity assay = format: cell-based; settings: human, HepG2 cells
Method: Cytotoxic activity of the compounds was measured through the MTT colorimetric assay as previously described[60] using the Colorimetric (MTT) Kit for Cell Survival and Proliferation (Merck/Millipore; Darmstadt, Germany). HepG2 cells (human hepatocellular carcinoma cell line) were kept in penicillin/streptomycin-free medium overnight and then they were treated with the compounds for 24 h. Subsequently, the MTT reagent was added to the cells and after 3 h of incubation, MTT-derived formazan crystals were solubilized in acidified isopropanol (0.1 mL isopropanol with 0.04 N HCl). Absorbance was measured with multiscan spectrophotometer (Thermo Fisher Scientific) at 530 nm test and 630 nm reference wavelengths. Cell viability was expressed as the percentage of viable, untreated cells. CC50 values were determined with GraphPad Prism software (v9.3.1) and adjusted to dose-response curves by non-linear regression (Supplementary Table S7).
8. Cytotoxocity against HepG2 cells
Table S7. CC50 values and viability curves of metallo-β-lactamase inhibitors tested on HepG2 […]
cells. […]
range. Data are shown as % via bility values ± SEM (n=4). Calculations were done using […]
Inhibitors CC50 (μM) HepG2 […]

GIM-1 [2] = target: T1, GIM-1; test: Enzymatic metallo-β-lactamase assay on purified GIM-1; format: biochemical; settings: for logIC50 GIM-1: log of IC50, ± SEM of logIC50; for IC50: purified enzyme 1 nM, nitrocefin 2 μM, pH 7.2, 25 °C
Method: (§1) A few inhibitors were tested up to 1600 μM to ensure nearly complete inhibition. Solutions of 100 μL consisting of buffer, purified enzyme (1 nM for GIM-1 and VIM-2, 5 nM for NDM-1), inhibitor and reporter substrate nitrocefin (15 μM for VIM-2, 2 μM for GIM-1) or imipenem (30 μM for NDM-1) were incubated in triplicates on a 96 well plate for 5 min at 25 °C. Buffer solution consisted of 50 mM HEPES pH 7.2, 50 μM ZnSO4 and 0.4 mg/ml bovine serum albumine. Inhibitors were dissolved in DMSO but diluted to assure <2% DMSO in measured assay. Absorbance was measured at 482 nm (nitrocefin) and 300 nm (imipenem) on a SpectraMax M4 spectrophotometer. The initial velocity at each inhibitor concentration was analyzed in GraphPad Prism v9.3.1 and fitted to dose-response curves by non-linear regression (log [inhibitor] vs response) used to calculate IC50 (Supplementary Tables S2–5).

NDM-1 = NDM-1 (Klebsiella pneumoniae, UniProt C7C422); test: Enzymatic metallo-β-lactamase assay on purified NDM-1; format: biochemical; settings: for Ki: approximated from Dixon plots (1/v vs [I]) at one constant substrate concentration, ± SE, read-out: Estimated inhibition constant Ki NDM-1; for logIC50 NDM-1: log of IC50, ± SEM of logIC50; for IC50: purified enzyme 5 nM, imipenem 30 μM, pH 7.2, 25 °C
Method: as §1

[3] = Long term stability in buffer with 2.5% DMSO (LC-MS); format: physicochemical; settings: 20 mM KPO4, 0.1 mM ZnCl2, pH 7.0 + 2.5% DMSO; LC-MS 254 nm
Source text: Reagents, reactants, solvents and drying agents for synthesis, work-up and purification were purchased from commercial vendors (Sigma-Aldrich, VWR, Merck, Fluorochem, Thermo Fisher Scientific, Solveco), and if not stated otherwise they were used without further purification. Reactions and long term stability of the final compounds in buffer were monitored using LC-MS (Agilent 1260 Infinity II) equipped with an ESI-Q detector (Infinitylab LC-MSD) using Agilent InfinityLab Poroshell 120 C18 columns (2.7 μm, ϕ 2.1 mm L 50 mm or 2.7 μm, ϕ 4.6 mm L 50 mm). The intermediates were purified using VWR silica gel 60 (40–63 μm) with a Biotage Isolera One flash column chromatography instrument. The final products were purified with preparative RP-HPLC (VWR LaPrep P110) with single wavelength detection (254 nm), using a Kinetex C8 column (5 μm, 100 Å, ϕ 21.2 mm L 250 mm) and gradients of CH3CN/H2O + 0.1% formic acid as the mobile phase at a 10 mL/min flow rate. Analytical HPLC data were acquired on a VWR LaChrome ELITE system using an ACE3 C8 (3 μm, 300 Å, ϕ 3.0 mm L 100 mm) or a Kinetex C18 columns (5 μm, 100 Å, ϕ 3.0 mm L 150 mm). NMR spectra were recorded on a Varian Agilent MR400-DD2 400 MHz spectrometer equipped with a OneNMR probe, Bruker Avance Neo 500 MHz spectrometer equipped with a cryogenic TXO probe, or a Bruker Avance Neo 600 MHz spectrometer equipped with a TCI cryogenic probe. The chemical shifts are reported using the residual solvent signal as an indirect reference to TMS.
4. Long term stability of the final compounds in buffer with 2.5% DMSO
The long term stability of the final compounds in buffer (20 mM KPO4, 0.1 mM ZnCl2, pH 7.0 + 2.5% DMSO) were monitored using LC-MS (Agilent 1260 Infinity II) equipped with an ESI-Q detector (Infinitylab LC-MSD) using Agilent InfinityLab Poroshell 120 C18 column (2.7 μm, ϕ 4.6 mm L 50 mm) at 254 nm with a 7 min long gradient method (5% to 95% CH3CN) of CH3CN/H2O + 0.1% formic acid as the mobile phase at a 1.0 mL/min flow rate. The samples were measured right after dissolving them in buffer, and after 1 month of keeping the same samples dissolved in the same buffer. The main peaks (> 95%) and impurities with > 1% are […]
Figure S14. Compound 5a right after dissolving it in buffer.
Figure S15. Compound 5a kept in buffer for 1 month. […]

VIM-2 = VIM-2 (Escherichia coli, UniProt Q5U7L7); test: Enzymatic metallo-β-lactamase assay on purified VIM-2; format: biochemical; settings: for Ki: approximated from Dixon plots (1/v vs [I]) at one constant substrate concentration, ± SE, read-out: Estimated inhibition constant Ki VIM-2; for logIC50 VIM-2: log of IC50, ± SEM of logIC50; for IC50: purified enzyme 1 nM, nitrocefin 15 μM, pH 7.2, 25 °C
Method: as §1

15N-labelled VIM-2 = target: T2, 15N-labelled VIM-2 (Escherichia coli, UniProt Q5U7L7); test: 1H,15N-HSQC titration of VIM-2; format: binding; settings: 10 equivalents of compound, 600 MHz, pH 7.0, 25 °C
T2 construct: made in house
Method: The ^1H, ^15N-HSQC spectra for the titration experiments were recorded on a Bruker Avance Neo 600 MHz spectrometer equipped with a 5 mm TCI cryogenic probe at 25 °C. The U-[^15N]-labeled VIM-2 was prepared in a buffer of 20 mM KPO4, 0.1 mM ZnCl2, at pH 7.0, containing 85% H2O/15% D2O at a concentration of 0.25 mM. The U-[^15N]-labeled NDM-1 was used in a buffer of 20 mM HEPES, 0.1 mM ZnCl2, at pH 7.0, containing 85% H2O/15% D2O at a concentration of 0.25 mM. The ligands 5d, 5g, 5i, 5j (for VIM-2 titrations) and 5 f (for NDM-1 titration) were dissolved in the same buffer as the corresponding enzymes. Spectra were recorded using solvent suppression, 1024 points in f1, 16 transients, 512 increments in f2 and a relaxation delay of 0.2 s. The titrations were carried out with 0, 0.25, 0.50, 1.00, 1.50, 2.25, 3.00, 4.00, 5.00, 7.00, 10.0 equivalents of the inhibitors.
Figure S47. Superimposition of the 1H,15N-HSQC spectrum (600 MHz, pH 7.0, 25 °C) of
VIM-2 in the absence (blue) and in the presence (green) of 10 molar equivalent of compound
5j. Buffer: 20 mM KPO4, 0.1 mM ZnCl2, with 15% D2O.
Chemical shift perturbation values (CSP, ΔδNH) were calculated as the weighted average of
the chemical shift changes in f1 (ΔδN) and f2 (ΔδH) dimensions using the following equation 8:
∆δ = √∆δ 2 + ( N ); R = 6.5
Figure S48. Linear regression of the chemical shift perturbations of compound 5g (IC50 =
12 μM) as a function of the chemical shift perturbations of compounds 5c (yellow circle), 5d
(grey square), 5i (green triangle) and 5j (blue circle) for VIM-2. The data of the studied […]

[4] = HepG2, MTT, read-out: CC50 (in viability curve)
[5] = MTT, 0.0025 mM - 1mM concentration range, read-out: Cytotoxicity CC50 HepG2

T1 sequence (Q704V1 entry or part of it): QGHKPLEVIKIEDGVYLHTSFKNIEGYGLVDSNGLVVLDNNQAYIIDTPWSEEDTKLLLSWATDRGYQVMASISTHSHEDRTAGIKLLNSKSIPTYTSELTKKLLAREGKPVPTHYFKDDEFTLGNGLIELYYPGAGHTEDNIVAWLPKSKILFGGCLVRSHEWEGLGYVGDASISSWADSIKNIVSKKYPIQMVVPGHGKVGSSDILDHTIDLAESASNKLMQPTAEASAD
NDM-1, sequence (C7C422 29-270, looked up, species assumed): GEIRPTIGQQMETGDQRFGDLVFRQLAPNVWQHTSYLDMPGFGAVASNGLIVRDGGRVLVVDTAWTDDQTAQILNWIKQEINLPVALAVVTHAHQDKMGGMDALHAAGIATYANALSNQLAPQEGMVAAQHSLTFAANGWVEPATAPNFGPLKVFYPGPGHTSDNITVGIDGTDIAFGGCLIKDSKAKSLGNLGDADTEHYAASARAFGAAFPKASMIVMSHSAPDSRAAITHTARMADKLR

Structure (SMILES)	Ki (GIM-1 [1]) [µM]	CC50 at 24 h (MTT cytotoxicity assay; [4]) [µM]	CC50 at 24 h (MTT cytotoxicity assay; [5]) [µM]	logIC50 GIM-1 (GIM-1 [2]) [μM]	IC50 (GIM-1 [2]) [µM]	Ki (NDM-1) [µM]	logIC50 NDM-1 (NDM-1)	IC50 (NDM-1) [µM]	main peak Area% kept in buffer for 1 month [3] [%]	main peak Area% right after dissolving in buffer [3] [%]	Ki (VIM-2) [µM]	logIC50 VIM-2 (VIM-2) [μM]	IC50 (VIM-2) [µM]	Mean chemical shift perturbation, VIM-2 (15N-labelled VIM-2) [ppm]
O=C(NC(c1ccccc1O)P(=O)(O)O)c1cccs1 (centres unmarked) [5a]	144 ± 36	4500	4550	1.30 ± 0.08	20	617 ± 95	2.34 ± 0.09 log10(IC50/μM)	217	95.67	95.87	36 ± 6	1.85 ± 0.07	71	–
O=C(NC(c1ccccc1O)P(=O)(O)O)c1ccsc1 (centres unmarked) [5b]	162 ± 21	1800	1830	2.37 ± 0.21	236	451 ± 57	1.99 ± 0.13 log10(IC50/μM)	97	95.03	95.46	112 ± 11	2.10 ± 0.08	124	–
O=C(NC(c1ccccc1O)P(=O)(O)O)c1cc2ccccc2s1 (centres unmarked) [5c]	102 ± 10	2900	2930	2.01 ± 0.09	101	–	–	–	97.59	97.20	71 ± 6	2.01 ± 0.05	103	0.05
O=C(NC(c1ccccc1O)P(=O)(O)O)c1csc2ccccc12 (centres unmarked) [5d]	64 ± 13	4400	4440	1.01 ± 0.19	10	–	–	–	97.15	97.92	31 ± 5	1.33 ± 0.03	21	0.04
O=C(NC(c1ccccc1O)P(=O)(O)O)c1cc2c(s1)CCCC2 (centres unmarked) [5e]	76 ± 5	> 1000	> 1000	1.73 ± 0.12	53	–	–	–	98.87	98.53	72 ± 7	1.90 ± 0.11	79	–
O=C(NC(c1ccccc1O)P(=O)(O)O)c1ccccc1 (centres unmarked) [5h]	118 ± 20	> 1000	> 1000	1.54 ± 0.13	35	363 ± 86	1.93 ± 0.09 log10(IC50/μM)	85	95.39	95.97	85 ± 12	1.74 ± 0.05	55	–
O=C(Cc1ccsc1)NC(c1ccccc1O)P(=O)(O)O (centres unmarked) [5j]	–	4000	3970	2.01 ± 0.06	103	196 ± 13	2.37 ± 0.07 log10(IC50/μM)	232	96.88	95.28	88 ± 16	1.57 ± 0.03	37	0.04
O=C(Cc1cc2ccccc2s1)NC(c1ccccc1O)P(=O)(O)O (centres unmarked) [5k]	189 ± 76	5600	5610	1.90 ± 0.08	80	262 ± 41	1.81 ± 0.11 log10(IC50/μM)	65	98.27	98.10	119 ± 13	1.71 ± 0.07	51	–
O=C(Cc1csc2ccccc12)NC(c1ccccc1O)P(=O)(O)O (centres unmarked) [5l]	193 ± 41	3900	3910	1.71 ± 0.07	51	411 ± 160	1.83 ± 0.05 log10(IC50/μM)	67	98.10	98.54	39 ± 5	1.42 ± 0.18	26	–
O=C(Cc1ccccc1)NC(c1ccccc1O)P(=O)(O)O (centres unmarked) [5m]	213 ± 22	> 1000	> 1000	2.08 ± 0.53	121	–	–	–	–	96.96	74 ± 7	1.87 ± 0.35	74	–
